Experimental data as given in US9808528B2, “Protein-polymer-drug conjugates and methods of using same” (priority 2014, dated 2017).
Where a SMILES comes first, the peptide text is derived from it. [ ]: non-standard residue; d: D form. The star is where a group is joined. Dolaproine = CO[C@@H]([C@@H]1CCCN1)[C@@H](C)C(=O)O; Dil = CC[C@H](C)[C@H](NC)[C@@H](CC(=O)O)OC; NMe2Val = CC(C)[C@@H](C(=O)*)N(C)C; NH(3-hydroxypropyl) = OCCCN*

Key:
HL-60 = test: Cell viability assay (Cell Titer-Glo); type: cell-based; conditions: CD33 expressing cells; 72 h or 6 days incubation
Method: Dose response curves were generated using SoftMax Pro software. IC50 values were determined from four-parameter curve fitting.
CD33 expressing cells HL-60 were passed at a density of 5,000 cells per well and treated with PBRM-polymer-drug conjugate on the same day. After 72 h or 6 days incubation, the cells were analyzed using the same procedure described above.

HL-60 cells = test: Tumor growth response, HL-60 xenograft; type: in vivo, mice; conditions: single IV dose day 1; 20 mg/kg
Method: Female NCr nu/nu mice were inoculated subcutaneously with HL-60 cells (n=10 for each group). Test compounds or vehicle were dosed IV as a single dose on day 1. Tumor size was measured at the times indicated in FIGS. 1 to 6 using digital calipers. Tumor volume was calculated and was used to determine the delay in tumor growth. Mice were sacrificed when tumors reached a size of 800 to 1500 mm^3. Tumor volumes are reported as the mean±SEM (“standard error of mean”) for each group.
Female NCr nu/nu mice were inoculated subcutaneously with HL-60 cells (n=10 for each group). Test compounds or vehicle were dosed IV as a single dose on day 1. Tumor size was measured at the times indicated in FIG. 3 using digital calipers. Tumor volume was calculated and was used to determine the delay in tumor growth. Mice were sacrificed when tumors reached a size of 2000 mm^3. Tumor volumes are reported as the mean±SEM for each group.

MCF7 = test: Cell viability assay (Cell Titer-Glo); type: cell-based; conditions: 72 h incubation; HER2 low expressing cells; AF-HPA as toxin equivalents
Method: (§1) PBRM-polymer-drug conjugates were evaluated for their antiproliferation properties in tumor cell lines in vitro using Cell Titer-Glo (Promega Corp). Cells were plated in black walled 96-well plate and allowed to adhere overnight at 37° C. in a humidified atmosphere of 5% CO2. SKBR3, BT474, NCI-N87 cells (HER2 expressing cells), MCF7 cells (HER2 low expressing levels cells) and JIMT1 cells (HER2 medium expression level cells) were plated at a density of 5,000 cells per well. The next day the medium was replaced with 50 μL fresh medium and 50 μL of 2× stocks of PBRM-polymer-drug conjugate, drug polymer conjugate or drug were added to appropriate wells, mixed and incubated for 72 h. Cell Titer-Glo reagent was added to the wells at room temperature and the luminescent signal was measured after 10 min using a SpectraMax M5 plate reader (Molecular Devices). Dose response curves were generated using SoftMax Pro software. IC50 values were determined from four-parameter curve fitting.

JIMT1 = test: Cell viability assay (Cell Titer-Glo); type: cell-based; conditions: 72 h incubation; HER2 medium expression level cells; AF-HPA as toxin equivalents
Method: as §1

BT474 = test: Cell viability assay (Cell Titer-Glo); type: cell-based, human; conditions: 72 h incubation; AF-HPA as toxin equivalents
Method: as §1

[1] = Mouse tissue distribution after administration of PBRM-polymer-drug conjugates
Method: To determine the concentration of the free drug in the sample, the acidified sample was treated with acetonitrile. The free drug was extracted from the supernatant and analyzed by LC-MS/MS.
At 48 hours post administration, the mice were sacrificed and the blood was collected by terminal cardiac.

N87 = test: Cell viability assay (Cell Titer-Glo); type: cell-based; conditions: 72 h incubation; AF-HPA as toxin equivalents
Method: as §1

SKBR3 = test: Cell viability assay (Cell Titer-Glo); type: cell-based; conditions: 72 h incubation; AF-HPA as toxin equivalents
Method: as §1

hErbB2 = hErbB2 (Homo sapiens, UniProt P04626); test: Ligand binding studies by BIAcore surface plasmon resonance (SPR); conditions: 25° C.; immobilized hErbB2; BioRad ProteOn XPR36
Method: The kinetic binding of the PBRM-polymer-drug conjugate to an immobilized receptor is determined by BIAcore SPR. The binding constants for the PBRM in the PBRM-polymer-drug conjugate and PBRM alone can be determined using standard BIAcore procedures.
The kinetic binding of the PBRM-polymer-drug conjugate to an immobilized receptor was determined by BIAcore SPR.

JIMT-1 = conditions: read-out: IC50 JIMT-1; HER2 molecules per cell 80,000; Her2 expression 2+; 72 hours or 6 days
NCI-N87 cells = test: Tumor growth response, NCI-N87 xenograft; type: in vivo, mice; conditions: single IV dose; Example 14 at […]; Example 16 at 3 mg/kg
Method: Female CB-17 SCID mice were inoculated subcutaneously with BT474 tumor fragments (n=10 for each group) or JIMT-1 cells (n=10 for each group) or NCI-N87 cells (n=10 for each group). […] Test compounds or vehicle were dosed IV as a single dose on day 1. Tumor size was measured at the times indicated in FIGS. 1 to 6 using digital calipers. Tumor volume was calculated and was used to determine the delay in tumor growth. Mice were sacrificed when tumors reached a size of 800 to 1500 mm^3. Tumor volumes are reported as the mean±SEM (“standard error of mean”) for each group.

Compound: Rituximab-((EG2-MI (3%)-(10 kDa PHF-BA (30%)-(AF-HPA-Ala (8%)) [Example 9]
- IC50 (HL-60): 6.74 nM

Compound: lintuzumab
- tumor volume response (in words), FIG. 3 (HL-60 cells): increase of tumor volume

Compound: CC[C@H](C)[C@@H]([C@@H](CC(=O)N1CCC[C@H]1[C@H](OC)[C@@H](C)C(=O)N[C@@H](Cc1ccccc1)C(=O)NCCCO)OC)N(C)C(=O)[C@@H](NC(=O)[C@H](C(C)C)N(C)C)C(C)C [AF-HPA, Auristatin F-hydroxypropylamide] (NMe2Val-V[Dil][Dolaproine]F-{NH(3-hydroxypropyl)})
- IC50 (MCF7): 4.4 nM
- IC50 (HL-60): 4.8 nM
- IC50 (JIMT1): 0.86 nM
- IC50 (BT474): 1.01 nM
- metabolism of unconjugated AF-HPA in plasma (in words) ([1]; in plasma): not converted to AF
- metabolism of released unconjugated AF-HPA in tissue (in words) ([1]; in tissue): further metabolized to AF
- IC50 (N87): 0.42 nM

Compound: Trastuzumab-((EG2-MI (2%)-(10 kDa PHF-BA (28%)-(AF-HPA-Ala (9%) [Example 18B]
- IC50 (SKBR3): 0.01 nM
- IC50 (MCF7): 33 nM
- IC50 (JIMT1): 0.12 nM
- IC50 (BT474): 0.05 nM
- ka (association or affinity rate constant) (hErbB2): 3.05 ± 0.2 × 10^5 M^−1s^−1
- kd (dissociation rate constant) (hErbB2): 2.46 ± 0.1 × 10^−5 s^−1
- IC50 (N87): 0.04 nM

Compound: Trastuzumab-((EG2-MI (2%)-(10 kDa PHF-BA (28%)-(AF-HPA-Ala (9%) [Example 17]
- IC50 (SKBR3): 0.03 nM
- IC50 (MCF7): 28.8 nM
- IC50 (JIMT1): 0.06 nM
- IC50 (BT474): 0.03 nM
- IC50 (JIMT-1): 0.3 nM
- ka (association or affinity rate constant) (hErbB2): 8.30 ± 0.2 × 10^5 M^−1s^−1
- kd (dissociation rate constant) (hErbB2): 2.32 ± 0.2 × 10^−5 s^−1
- IC50 (N87): 0.43 nM

Compound: Rituximab-((EG2-MI (2%)-(10 kDa PHF-BA (28%)-(AF-HPA-Ala (9%)) [Example 16]
- IC50 (MCF7): 27.9 nM
- IC50 (JIMT1): 1.88 nM
- IC50 (BT474): 3.04 nM
- IC50 (N87): 5.23 nM
- tumor growth response (in words), FIG. 6 (NCI-N87 cells): no effect on tumor growth

Compound: Trastuzumab-((EG2-MI (2%)-(10 kDa PHF-BA (28%)-(AF-HPA-Ala (9%) [Example 18A]
- IC50 (SKBR3): 0.02 nM
- IC50 (MCF7): 9.6 nM
- IC50 (JIMT1): 0.16 nM
- IC50 (BT474): 0.04 nM
- ka (association or affinity rate constant) (hErbB2): 4.67 ± 0.7 × 10^5 M^−1s^−1
- kd (dissociation rate constant) (hErbB2): 2.07 ± 0.2 × 10^−5 s^−1
- IC50 (N87): 0.06 nM
